Measured values taken from patent publication US20220142995A1, “DUAL ATM AND DNA-PK INHIBITORS FOR USE IN ANTI-TUMOR THERAPY” (XRAD Therapeutics, Inc., priority 2019, published 2022).

Tested on: MDA-MB-231 subcutaneous human xenograft
Experiment: In vivo tumor growth delay study, MDA-MB-231 subcutaneous human xenograft mouse model
Source text: Tumor Studies. Female NCr nu/nu mice (Crl:NU(NCr)-Foxn1 nu, Strain 490) were obtained from Charles River at 5-6 weeks of age. All animal procedures used in these studies were approved by the Institutional Animal Care and Use Committee (IACUC) at Duke University.
FADU or MDA-MB-231 cells were harvested during log phase growth for in vivo implantation. The resuspended cells were washed three times in phosphate buffered saline (PBS) before preparing the working dilution in PBS. FADU cells were diluted to 1×10^7 cells/mL and MDA-MB-231 cells were diluted to 5×10^7 cells/mL. Each mouse was injected subcutaneously in the right flank with 100 μL of the cellular suspension. Tumor growth was monitored until the tumors reached a target volume of at least 100 mm^3, at which point mice were randomly stratified into four treatment groups.
Following implantation of the tumor cell lines, mice were monitored once weekly for tumor development. Upon detection, tumors were measured in two dimensions using digital calipers. Tumors were treated after reaching at least 100 mm^3 and were measured two to three times weekly following enrollment in one of the treatment groups. The study endpoint was defined as tumor quintupling from the volume at time of treatment.
The vehicle used in this study was 0.5% (Hydroxypropyl)methyl cellulose (HPMC) and 0.2% Tween80 dissolved in deionized water. The pH of the vehicle was adjusted to 7.0-8.0 and the vehicle was stored at 4° C. On each day of in vivo treatment an appropriate mass of test compound was added to the vehicle at room temperature. The mixture was vortexed as necessary to generate a final concentration of 1.6 mg/mL.
In vivo tumor growth delay study was performed as follows. Following implantation of the tumor cell lines, mice were monitored once weekly for tumor development. Upon development of a tumor measuring at least 100 mm^3, tumor-bearing mice were stratified to one of 4 groups, utilizing 5 mice per group. Tumor volumes were between 100 and 500 mm^3. Vehicle or compound 569 (10 mg/kg) were administered by oral gavage once daily for three consecutive days (qd×3), alone or in combination with focal radiation. The delivered volume of vehicle or compound 569 was adjusted based on body weight of the individual animals. […]
Statistical and Graphical Analysis of the in vivo data. […] In order to adjust for the differing tumor sizes at the start of treatment, the relative tumor volume was calculated by dividing the tumor volume at each time point by the volume at baseline. […] When an animal exited the study due to tumor quintupling, the final tumor volume recorded for the animal was included with the data used to calculate the median volume at subsequent time points. […]

For `CC(C)NCCOc1ncc(-c2cc3c4c(cnc3cc2F)N(C)C(=O)C42CCC2)cc1NS(C)(=O)=O` [Compound 569, N-(5-(7′-Fluoro-3′-methyl-2′-oxo-2′,3′-dihydrospiro[cyclobutane-1,1′-pyrrolo[2,3-c]quinolin]-8′-yl)-2-(2-(isopropylamino)ethoxy)pyridin-3-yl)methanesulfonamide], the “tumor growth curves and quintupling-free survival” value (MDA-MB-231, Group 2 (10 mg/kg qd×3 alone) versus Group 1 (vehicle)) was “nearly identical to those for Group 1”, the “overall survival compared to Group 1, Group 2 and Group 3” value (MDA-MB-231, Group 4: 10 mg/kg + 3 Gy qd×3, P<0.01, logrank) was “significantly improved” and the animals found dead (MDA-MB-231, Group 4: 10 mg/kg + 3 Gy qd×3, unknown causes) was “One animal was found dead on Day 35”. For the same compound, the tolerability (MDA-MB-231-bearing mice, 10 mg/kg qd×3 alone or with 3 Gy) was “well-tolerated”.
